Columns and labels:
Assay in all cases: Kinase selectivity, scanMAX Kinase assay panel (DiscoverX), % control at 1 uM
Format in all cases: binding
[1] = molecular target: T1, scanMAX Kinase assay panel (Homo sapiens, UniProt Q13188); conditions: MST2; 1 uM; read-out: Percent Control (%)
T1 construct: purchased DiscoverX
T1 sequence (Q13188 1-491): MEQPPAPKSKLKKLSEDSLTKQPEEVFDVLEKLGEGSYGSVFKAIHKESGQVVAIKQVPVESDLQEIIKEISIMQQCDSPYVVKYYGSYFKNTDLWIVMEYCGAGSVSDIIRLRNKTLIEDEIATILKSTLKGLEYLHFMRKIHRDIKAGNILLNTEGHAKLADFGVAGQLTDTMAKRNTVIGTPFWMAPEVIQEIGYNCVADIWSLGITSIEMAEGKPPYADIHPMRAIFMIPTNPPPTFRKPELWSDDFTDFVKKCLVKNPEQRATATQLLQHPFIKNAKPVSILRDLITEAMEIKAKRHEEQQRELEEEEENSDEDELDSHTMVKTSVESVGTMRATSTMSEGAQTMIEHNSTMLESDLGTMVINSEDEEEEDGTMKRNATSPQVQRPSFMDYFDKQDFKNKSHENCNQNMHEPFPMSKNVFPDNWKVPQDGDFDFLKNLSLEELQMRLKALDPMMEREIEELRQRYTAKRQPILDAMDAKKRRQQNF
Summary of the method: (§1)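 Binding across the scanMAX kinase panel was tested at 1 uM compound. % control = (compound − positive control)/(negative control − positive control) × 100; below 35 counted as active.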

[2] = molecular target: T2, scanMAX Kinase assay panel (Homo sapiens, UniProt P31749); conditions: AKT1; 1 uM; read-out: Percent Control (%)
T2 construct: purchased DiscoverX
Summary of the method: as §1

[3] = molecular target: T3, scanMAX Kinase assay panel (Homo sapiens, UniProt Q13873); conditions: BMPR2; 1 uM; read-out: Percent Control (%)
T3 construct: purchased DiscoverX
T3 sequence (Q13873 27-1038): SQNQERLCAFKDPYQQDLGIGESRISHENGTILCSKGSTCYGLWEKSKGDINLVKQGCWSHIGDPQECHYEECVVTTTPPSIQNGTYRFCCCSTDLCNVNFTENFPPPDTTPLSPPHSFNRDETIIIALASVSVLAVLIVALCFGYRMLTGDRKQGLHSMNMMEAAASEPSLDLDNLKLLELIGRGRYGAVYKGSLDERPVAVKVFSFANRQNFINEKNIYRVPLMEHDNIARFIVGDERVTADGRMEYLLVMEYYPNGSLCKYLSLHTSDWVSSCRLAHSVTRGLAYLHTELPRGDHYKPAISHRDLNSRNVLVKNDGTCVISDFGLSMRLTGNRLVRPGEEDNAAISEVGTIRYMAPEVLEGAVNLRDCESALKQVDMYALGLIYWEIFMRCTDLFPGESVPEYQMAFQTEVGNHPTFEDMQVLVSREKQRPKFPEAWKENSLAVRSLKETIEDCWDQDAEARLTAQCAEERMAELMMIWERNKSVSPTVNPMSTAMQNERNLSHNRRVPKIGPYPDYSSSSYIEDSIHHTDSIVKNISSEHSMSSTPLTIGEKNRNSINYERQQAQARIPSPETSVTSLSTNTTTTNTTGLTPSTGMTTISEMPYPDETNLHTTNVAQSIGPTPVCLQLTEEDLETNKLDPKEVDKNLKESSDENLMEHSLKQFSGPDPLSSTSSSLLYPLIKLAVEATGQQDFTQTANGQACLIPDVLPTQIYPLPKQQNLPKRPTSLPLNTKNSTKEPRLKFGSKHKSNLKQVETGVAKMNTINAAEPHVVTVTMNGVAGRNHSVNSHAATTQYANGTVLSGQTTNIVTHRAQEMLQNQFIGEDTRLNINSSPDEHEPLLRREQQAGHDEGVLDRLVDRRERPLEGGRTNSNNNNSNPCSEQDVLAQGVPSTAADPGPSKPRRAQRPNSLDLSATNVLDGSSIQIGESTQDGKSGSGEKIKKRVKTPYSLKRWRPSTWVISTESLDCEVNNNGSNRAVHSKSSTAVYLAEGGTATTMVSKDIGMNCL
Summary of the method: as §1

[4] = molecular target: T4, scanMAX Kinase assay panel (Homo sapiens, UniProt Q9BUB5); conditions: MKNK1; 1 uM; read-out: Percent Control (%)
T4 construct: purchased DiscoverX
Summary of the method: as §1

[5] = molecular target: T5, scanMAX Kinase assay panel (Homo sapiens, UniProt Q9P2K8, S808G); conditions: GCN2 (Kin.Dom.2, S808G); 1 uM; read-out: Percent Control (%)
T5 construct: purchased DiscoverX
Summary of the method: as §1

[6] = molecular target: T6, scanMAX Kinase assay panel (Homo sapiens, UniProt Q08881); conditions: ITK; 1 uM; read-out: Percent Control (%)
T6 construct: purchased DiscoverX
T6 sequence (Q08881 1-620): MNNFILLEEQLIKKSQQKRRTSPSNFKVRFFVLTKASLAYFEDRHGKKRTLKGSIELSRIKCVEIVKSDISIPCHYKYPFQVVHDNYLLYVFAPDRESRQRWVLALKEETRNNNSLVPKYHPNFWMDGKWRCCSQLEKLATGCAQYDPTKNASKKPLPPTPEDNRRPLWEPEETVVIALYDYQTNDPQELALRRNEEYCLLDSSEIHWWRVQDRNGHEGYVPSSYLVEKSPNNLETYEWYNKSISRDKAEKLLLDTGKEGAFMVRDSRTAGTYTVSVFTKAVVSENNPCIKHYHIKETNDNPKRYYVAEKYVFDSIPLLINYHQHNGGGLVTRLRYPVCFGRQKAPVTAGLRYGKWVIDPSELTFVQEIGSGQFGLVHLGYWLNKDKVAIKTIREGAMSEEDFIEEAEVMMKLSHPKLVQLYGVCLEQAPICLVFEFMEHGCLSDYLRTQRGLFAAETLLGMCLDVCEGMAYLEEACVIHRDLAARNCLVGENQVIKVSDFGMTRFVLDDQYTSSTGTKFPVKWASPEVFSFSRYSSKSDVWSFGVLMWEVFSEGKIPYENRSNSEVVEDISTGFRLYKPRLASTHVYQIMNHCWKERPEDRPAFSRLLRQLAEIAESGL
Summary of the method: as §1

T2 sequence (P31749 whole entry): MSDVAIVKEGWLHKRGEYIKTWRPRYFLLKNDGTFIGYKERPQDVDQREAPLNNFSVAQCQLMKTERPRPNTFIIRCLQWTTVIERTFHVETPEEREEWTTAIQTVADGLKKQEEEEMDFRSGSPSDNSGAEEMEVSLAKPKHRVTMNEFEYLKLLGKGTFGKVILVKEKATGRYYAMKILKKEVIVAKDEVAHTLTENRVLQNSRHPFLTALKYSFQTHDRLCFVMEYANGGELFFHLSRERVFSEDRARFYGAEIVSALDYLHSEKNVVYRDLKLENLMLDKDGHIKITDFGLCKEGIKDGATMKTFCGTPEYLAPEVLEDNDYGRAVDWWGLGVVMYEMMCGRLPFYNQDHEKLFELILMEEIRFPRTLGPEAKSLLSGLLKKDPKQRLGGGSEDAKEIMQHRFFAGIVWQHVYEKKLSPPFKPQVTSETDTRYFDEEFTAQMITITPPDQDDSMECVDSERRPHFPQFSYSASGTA
T5 sequence (Q9P2K8 whole entry S808G): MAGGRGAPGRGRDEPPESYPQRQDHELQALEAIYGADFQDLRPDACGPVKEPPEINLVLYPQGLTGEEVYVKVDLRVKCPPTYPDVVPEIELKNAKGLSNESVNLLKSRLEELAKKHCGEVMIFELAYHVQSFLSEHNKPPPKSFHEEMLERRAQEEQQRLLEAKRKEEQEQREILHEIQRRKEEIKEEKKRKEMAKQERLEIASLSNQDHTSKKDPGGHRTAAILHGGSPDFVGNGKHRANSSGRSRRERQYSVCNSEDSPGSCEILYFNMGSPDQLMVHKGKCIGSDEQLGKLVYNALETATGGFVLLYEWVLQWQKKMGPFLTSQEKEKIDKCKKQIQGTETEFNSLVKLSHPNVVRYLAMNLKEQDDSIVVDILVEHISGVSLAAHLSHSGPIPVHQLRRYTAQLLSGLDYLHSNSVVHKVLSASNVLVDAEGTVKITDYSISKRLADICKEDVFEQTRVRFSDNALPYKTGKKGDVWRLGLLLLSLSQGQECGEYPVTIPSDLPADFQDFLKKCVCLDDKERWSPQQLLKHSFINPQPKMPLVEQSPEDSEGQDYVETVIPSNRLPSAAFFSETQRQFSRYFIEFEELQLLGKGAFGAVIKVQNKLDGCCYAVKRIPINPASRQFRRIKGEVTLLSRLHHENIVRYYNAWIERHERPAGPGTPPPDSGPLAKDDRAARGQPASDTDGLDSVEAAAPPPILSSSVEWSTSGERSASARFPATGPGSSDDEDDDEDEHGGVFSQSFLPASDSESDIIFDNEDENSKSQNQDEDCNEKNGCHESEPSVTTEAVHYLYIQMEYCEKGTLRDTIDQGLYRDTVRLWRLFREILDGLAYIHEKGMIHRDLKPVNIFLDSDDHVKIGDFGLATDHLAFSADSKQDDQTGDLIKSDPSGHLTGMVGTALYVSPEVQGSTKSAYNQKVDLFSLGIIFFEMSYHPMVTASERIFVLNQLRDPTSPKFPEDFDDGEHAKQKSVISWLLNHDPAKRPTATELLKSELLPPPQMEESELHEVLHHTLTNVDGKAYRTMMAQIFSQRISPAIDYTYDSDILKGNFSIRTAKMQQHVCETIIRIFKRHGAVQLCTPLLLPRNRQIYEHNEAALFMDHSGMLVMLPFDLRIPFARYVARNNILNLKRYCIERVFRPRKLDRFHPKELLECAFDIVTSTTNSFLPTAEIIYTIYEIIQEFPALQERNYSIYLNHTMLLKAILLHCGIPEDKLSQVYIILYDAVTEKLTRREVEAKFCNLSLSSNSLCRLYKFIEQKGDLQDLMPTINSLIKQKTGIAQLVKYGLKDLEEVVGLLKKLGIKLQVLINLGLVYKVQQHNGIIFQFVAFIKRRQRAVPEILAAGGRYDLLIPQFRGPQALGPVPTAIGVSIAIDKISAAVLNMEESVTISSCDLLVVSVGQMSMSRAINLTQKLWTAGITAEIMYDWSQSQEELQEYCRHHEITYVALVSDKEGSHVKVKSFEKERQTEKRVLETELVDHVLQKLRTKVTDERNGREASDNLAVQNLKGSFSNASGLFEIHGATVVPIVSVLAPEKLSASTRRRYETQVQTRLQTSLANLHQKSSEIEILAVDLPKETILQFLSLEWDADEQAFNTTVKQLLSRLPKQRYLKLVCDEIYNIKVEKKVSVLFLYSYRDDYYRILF
T4 sequence (Q9BUB5 whole entry): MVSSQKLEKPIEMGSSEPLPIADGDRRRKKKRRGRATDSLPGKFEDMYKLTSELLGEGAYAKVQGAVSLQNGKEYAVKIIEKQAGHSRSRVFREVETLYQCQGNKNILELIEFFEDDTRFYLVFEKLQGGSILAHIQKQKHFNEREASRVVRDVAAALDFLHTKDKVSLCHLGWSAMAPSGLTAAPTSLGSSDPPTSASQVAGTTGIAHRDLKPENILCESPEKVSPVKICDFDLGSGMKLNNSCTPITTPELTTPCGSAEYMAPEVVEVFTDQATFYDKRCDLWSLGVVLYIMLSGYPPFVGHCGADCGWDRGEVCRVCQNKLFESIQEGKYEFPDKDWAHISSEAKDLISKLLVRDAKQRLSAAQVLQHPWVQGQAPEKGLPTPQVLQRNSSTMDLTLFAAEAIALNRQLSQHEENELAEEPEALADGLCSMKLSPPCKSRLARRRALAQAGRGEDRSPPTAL

Cc1ccc(C(=O)Nc2ccc(CN3CCN(C)CC3)c(C(F)(F)F)c2)cc1C#Cc1cnc2c(Nc3cnn(C)c3)cccn12 [Example 1, 4-methyl-3-((8-((1-methyl-1H-pyrazol-4-yl)amino)imidazo[1,2-a]pyridin-3-yl)ethynyl)-N-(4-((4-methylpiperazin-1-yl)methyl)-3-(trifluoromethyl)phenyl)benzamide]
remaining binding at 1 µM [1]: 5%
remaining binding at 1 µM [2]: 80%
remaining binding at 1 µM [3]: 82%
remaining binding at 1 µM [4]: 47%
remaining binding at 1 µM [5]: 0%
remaining binding at 1 µM [6]: 0%

Cc1cn(-c2cc(NC(=O)c3ccc(C)c(C#Cc4cnc5c(Nc6cnn(C)c6)cccn45)c3)cc(C(F)(F)F)c2)cn1 [Example 12, 4-methyl-N-(3-(4-methyl-1H-imidazol-1-yl)-5-(trifluoromethyl)phenyl)-3-((8-((1-methyl-1H-pyrazol-4-yl)amino)imidazo[1,2-a]pyridin-3-yl)ethynyl)benzamide]
remaining binding at 1 µM [1]: 100%
remaining binding at 1 µM [2]: 88%
remaining binding at 1 µM [3]: 100%
remaining binding at 1 µM [4]: 100%
remaining binding at 1 µM [5]: 76%
remaining binding at 1 µM [6]: 69%

Cc1ccc(NC(=O)C2(C(=O)Nc3ccc(F)cc3)CC2)cc1C#Cc1cnc2c(Nc3cnn(C(C)C)c3)cccn12 [Example 78]
remaining binding at 1 µM [1]: 85%
remaining binding at 1 µM [2]: 98%
remaining binding at 1 µM [3]: 84%
remaining binding at 1 µM [4]: 100%
remaining binding at 1 µM [5]: 89%
remaining binding at 1 µM [6]: 97%
